Results from US9518064B2, “Imidazothiadiazole and imidazopyridazine derivatives as protease activated receptor 4 (PAR4) inhibitors for treating platelet aggregation” (BRISTOL-MYERS SQUIBB COMPANY, priority 2012, dated 2016).

Each compound was assayed against PAR4 (Homo sapiens (Human), UniProt Q96RI0) (assay: FLIPR assay in PAR4-expressing HEK293 cells (calcium mobilization)). Conditions: PAR4 antagonist activity, FLIPR assay as described in Example A.
Format: cell-based

Chain of PAR4 (Q96RI0 18-385): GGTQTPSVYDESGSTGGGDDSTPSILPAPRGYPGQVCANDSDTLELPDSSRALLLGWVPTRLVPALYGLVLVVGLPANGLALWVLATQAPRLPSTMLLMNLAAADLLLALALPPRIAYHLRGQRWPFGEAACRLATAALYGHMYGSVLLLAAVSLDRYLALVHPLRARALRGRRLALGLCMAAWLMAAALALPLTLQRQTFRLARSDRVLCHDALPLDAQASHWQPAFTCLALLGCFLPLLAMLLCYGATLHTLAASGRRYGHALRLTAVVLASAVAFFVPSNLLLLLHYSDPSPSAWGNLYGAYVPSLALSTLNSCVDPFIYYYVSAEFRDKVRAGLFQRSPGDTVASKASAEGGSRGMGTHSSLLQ

Row | SMILES | IC50
1 | COc1cc(OCc2cccc(-c3ncccn3)c2)c2cc(-c3cn4nc(OC)sc4n3)oc2c1 [Example 3, 2-Methoxy-6-(6-methoxy-4-((3-(pyrimidin-2-yl)benzyl)oxy)benzofuran-2-yl)imidazo[2,1-b][1,3,4]thiadiazole] | 3.08 nM
2 | COc1cc(OCc2cccc(-c3cc4ccccc4s3)c2)c2cc(-c3cn4nc(OC)sc4n3)oc2c1 [Example 4] | 9.35 nM
3 | COc1cc(OCc2cccc(-c3ccc(F)nc3)c2)c2cc(-c3cn4nc(OC)sc4n3)oc2c1 [Example 7] | 1.29 nM
4 | COc1ccc(-c2cccc(COc3cc(OC)cc4oc(-c5cn6nc(OC)sc6n5)cc34)c2)c(C)c1 [Example 8] | 1.69 nM
5 | COc1cc(OCc2cccc(-c3ccsc3)c2)c2cc(-c3cn4nc(OC)sc4n3)oc2c1 [Example 9] | 1.26 nM
6 | COc1cc(OCc2cccc(-c3csc(C)n3)c2)c2cc(-c3cn4nc(OC)sc4n3)oc2c1 [Example 11] | 3.66 nM
7 | COc1cc(OCc2cccc(-c3ccc(F)cn3)c2)c2cc(-c3cn4nc(OC)sc4n3)oc2c1 [Example 14] | 1.53 nM
8 | COc1cc(OCc2cccc(-c3ccc(F)cc3F)c2)c2cc(-c3cn4nc(OC)sc4n3)oc2c1 [Example 17] | 3.78 nM
9 | COc1cc(OCc2cccc(-c3ccc4nsnc4c3)c2)c2cc(-c3cn4nc(OC)sc4n3)oc2c1 [Example 20] | 8.54 nM
10 | COc1cc(OCc2cccc(-c3cnc4ccccn34)c2)c2cc(-c3cn4nc(OC)sc4n3)oc2c1 [Example 21] | 7.34 nM
11 | COc1cc(OCc2cccc(-c3ccc4nncn4c3)c2)c2cc(-c3cn4nc(OC)sc4n3)oc2c1 [Example 22] | 23.6 nM
12 | COc1cc(OCc2cccc(-c3ccc(C)cn3)c2)c2cc(-c3cn4nc(OC)sc4n3)oc2c1 [Example 25] | 2.04 nM
13 | CCCOc1ncc(-c2cccc(COc3cc(OC)cc4oc(-c5cn6nc(OC)sc6n5)cc34)c2)cn1 [Example 37] | 0.36 nM
14 | COc1cc(OCc2cccc(-c3cnc(F)c(C)c3)c2)c2cc(-c3cn4nc(OC)sc4n3)oc2c1 [Example 38] | 0.68 nM
15 | COc1cc(OCc2cccc(-c3ccc(C)nc3F)c2)c2cc(-c3cn4nc(OC)sc4n3)oc2c1 [Example 39] | 0.53 nM
16 | COc1cc(OCc2cccc(-c3cccnc3F)c2)c2cc(-c3cn4nc(OC)sc4n3)oc2c1 [Example 45] | 1.03 nM
17 | COc1cc(OCc2cccc(-c3ncccc3C#N)c2)c2cc(-c3cn4nc(OC)sc4n3)oc2c1 [Example 46] | 1.64 nM
18 | COc1cc(OCc2cccc(-c3ncc(Cl)cc3F)c2)c2cc(-c3cn4nc(OC)sc4n3)oc2c1 [Example 50] | 1.88 nM
19 | COc1cc(OCc2cccc(-c3cnc(OC)cc3C)c2)c2cc(-c3cn4nc(OC)sc4n3)oc2c1 [Example 51] | 1.19 nM
20 | COCOc1cnc(-c2cccc(COc3cc(OC)cc4oc(-c5cn6nc(OC)sc6n5)cc34)c2)cn1 [Example 58] | 1.22 nM
21 | COc1ccc(-c2cc(F)cc(COc3cc(OC)cc4oc(-c5cn6nc(OC)sc6n5)cc34)c2)nc1 [Example 62, 6-(4-((3-Fluoro-5-(5-methoxypyridin-2-yl)benzyl)oxy)-6-methoxybenzofuran-2-yl)-2-methoxyimidazo[2,1-b][1,3,4]thiadiazole] | 0.84 nM
22 | COc1cc(COc2cc(OC)cc3oc(-c4cn5nc(OC)sc5n4)cc23)cc(-c2ccc(Cl)nc2)c1 [Example 66, 6-(4-((3-(6-Chloropyridin-3-yl)-5-methoxybenzyl)oxy)-6-methoxybenzofuran-2-yl)-2-methoxyimidazo[2,1b][1,3,4]thiadiazole] | 0.57 nM
23 | COc1cc(OCc2cccc(-c3ccc(F)cn3)c2)c2cc(-c3cn4nc(C(C)(F)F)sc4n3)oc2c1 [Example 67] | 4.54 nM
24 | COc1cc(OCc2cc(F)cc(-c3ncc(F)cc3F)c2)c2cc(-c3cn4nc(OC)sc4n3)oc2c1 [Example 70] | 1.48 nM
25 | COc1ccc(-c2cncc(COc3cc(OC)cc4oc(-c5cn6nc(OC)sc6n5)cc34)c2)cc1 [Example 73] | 2.18 nM
26 | COc1cc(OCc2cccc(-c3ccc(Cl)nc3)n2)c2cc(-c3cn4nc(OC)sc4n3)oc2c1 [Example 76] | 6.66 nM
27 | COc1cc(OCc2cccc(-c3cnc(OC)nc3)n2)c2cc(-c3cn4nc(OC)sc4n3)oc2c1 [Example 77] | 2.18 nM
28 | COc1ccc(-c2cccc(COc3cc(OC)cc4oc(-c5cn6nc(OC)sc6n5)cc34)n2)cc1 [Example 78] | 0.95 nM

More lines, now with the values ahead:

Row | IC50 | SMILES
29 | 2.36 nM | COc1cc(OCc2cccc(-c3c(C)noc3C)c2)c2cc(-c3cn4nc(OC)sc4n3)oc2c1 [Example 5]
30 | 3.55 nM | COc1cc(OCc2cccc(-c3cnn(C)c3)c2)c2cc(-c3cn4nc(OC)sc4n3)oc2c1 [Example 10]
31 | 3.76 nM | COc1cc(OCc2cccc(-c3csc4ccccc34)c2)c2cc(-c3cn4nc(OC)sc4n3)oc2c1 [Example 12]
32 | 6.4 nM | COc1cc(OCc2cccc(-c3cccnc3)c2)c2cc(-c3cn4nc(OC)sc4n3)oc2c1 [Example 15]
33 | 2.42 nM | COc1cc(OCc2cccc(-c3cnc(OC)nc3OC)c2)c2cc(-c3cn4nc(OC)sc4n3)oc2c1 [Example 19]
34 | 4.29 nM | COc1cc(OCc2cccc(-c3ccnc(C)c3)c2)c2cc(-c3cn4nc(OC)sc4n3)oc2c1 [Example 27]
35 | 0.67 nM | COc1cc(OCc2cccc(-c3ncc(F)cc3F)c2)c2cc(-c3cn4nc(OC)sc4n3)oc2c1 [Example 33]
36 | 0.38 nM | COc1cc(OCc2cccc(-c3ccc(Cl)cn3)c2)c2cc(-c3cn4nc(OC)sc4n3)oc2c1 [Example 36]
37 | 8.68 nM | COc1cc(OCc2cccc(-c3coc(C(N)=O)c3)c2)c2cc(-c3cn4nc(OC)sc4n3)oc2c1 [Example 41]
38 | 1.05 nM | COc1cc(OCc2cccc(-c3cnc(C#N)cn3)c2)c2cc(-c3cn4nc(OC)sc4n3)oc2c1 [Example 42]
39 | 1.21 nM | COc1cc(OCc2cccc(-c3ncccc3F)c2)c2cc(-c3cn4nc(OC)sc4n3)oc2c1 [Example 44]
40 | 0.56 nM | COc1cc(OCc2cccc(-c3ncc(Cl)cc3C)c2)c2cc(-c3cn4nc(OC)sc4n3)oc2c1 [Example 52]
41 | 1.47 nM | COc1cc(OCc2cccc(-c3ncc(Cl)cc3Cl)c2)c2cc(-c3cn4nc(OC)sc4n3)oc2c1 [Example 54]
42 | 0.69 nM | COc1cc(OCc2cccc(-c3ccnc(F)c3)c2)c2cc(-c3cn4nc(OC)sc4n3)oc2c1 [Example 55]
43 | 0.74 nM | COc1cc(OCc2cccc(-c3ccc(Cl)nc3)c2)c2cc(-c3cn4nc(OC)sc4n3)oc2c1 [Example 56]
44 | 1.66 nM | COc1cc(OCc2cccc(-c3ccc(C(=O)N4CCOCC4)nc3)c2)c2cc(-c3cn4nc(OC)sc4n3)oc2c1 [Example 57]
45 | 1 nM | COc1ccc(COC(C)c2ccc(-c3cccc(COc4cc(OC)cc5oc(-c6cn7nc(OC)sc7n6)cc45)c3)nc2)cc1 (stereo not shown) [Example 61]
46 | 1.08 nM | COc1cc(OCc2cncc(-c3ccoc3)c2)c2cc(-c3cn4nc(OC)sc4n3)oc2c1 [Example 65, 6-(4-((5-(Furan-3-yl)pyridin-3-yl)methoxy)-6-methoxybenzofuran-2-yl)-2-methoxyimidazo[2,1-b][1,3,4]thiadiazole]
47 | 7.19 nM | COc1cc(OCc2cncc(-c3ccccc3)c2)c2cc(-c3cn4nc(OC)sc4n3)oc2c1 [Example 72]
48 | 1.57 nM | COc1cc(OCc2cncc(-c3ccc(Cl)nc3)c2)c2cc(-c3cn4nc(OC)sc4n3)oc2c1 [Example 74]
49 | 2.14 nM | COc1cc(OCc2cncc(-c3cnc(OC)nc3)c2)c2cc(-c3cn4nc(OC)sc4n3)oc2c1 [Example 75]
